Measurements reported in a melting point compilation (Tetko et al.; mined from patent text by program, amines drawn as free bases though some values may be those of a salt).

| SMILES | melting point |
| --- | --- |
| CCCc1c(OCCCCCCc2cc(C)c(O)c(O)c2C)ccc(C(=O)O)c1O | 170 to 171 °C |
| O=C(O)COc1cccc2c1CCc1sc(S(=O)(=O)C(c3ccccc3)c3ccccc3)nc1-2 | 219 to 221 °C |
| Cc1ccc2c(C(C)C(N)=O)ccc(C(C)C)cc1-2 (configuration not stated) | 149 to 152 °C |
| O=C(NN1CCCCC1)c1nc(-c2ccc(Cl)cc2Cl)n(-c2ccc(Cl)cc2)c1CF | 162 to 163 °C |
| COC(=O)c1cccc2c1Nc1cccc(I)c1C2 | 108 to 110 °C |
| N#CC1(Nc2ccccc2)CCCCC1 | 67 to 69 °C |
| COCCN1CCN(CCc2ccc(Nc3ncc4c(n3)-c3ccccc3C(c3cccc(Br)c3)C4)cc2)CC1 (configuration not stated) | 105 to 107 °C |
| O=c1c2c(n(-c3ccccc3)c3ncccc13)OC(CBr)C2 (configuration not stated) | 187 to 188 °C |
| Cc1cc(N(C)Cc2oc(-c3ccc(C(F)(F)F)cc3)nc2C)ccc1OCC(=O)O | 156 to 157 °C |
| Cc1ccc(C2C(=O)CC(C)(C)CC2=O)c(C)c1 | 167 to 169 °C |
| C=CC1(C)OC(=O)c2ccc(Oc3ccc(C(F)(F)F)cc3Cl)cc21 (configuration not stated) | 71 to 73 °C |
| O=Cc1cc([N+](=O)[O-])c(O)c(O)c1Cl | 193 to 195 °C |
| COc1ccc2[nH]c3c(c2c1)CC(N(C)C)CC3 (configuration not stated) | 126 to 128 °C |
| CCCCCCCCCCOc1ccc(C(=O)Oc2ccc(OC(=O)[C@@H]3O[C@@H]3CCC)cc2)cc1Cl | 66.4 °C |
| CC(C)C[C@H](NC(=O)c1ccccc1)C(=O)NC#N | 136 to 137 °C |
| COc1ccc(N2CCN(c3c(C)c(C)c4c(c3C)C(O)(c3ccc(OC(F)(F)F)cc3)C(C)(C)O4)CC2)cc1 (configuration not stated) | 175 to 176 °C |
| O=[N+]([O-])c1ccc2c(c1)S(=O)(=O)c1ccccc1-2 | 259 °C |
| O=C1Nc2ccccc2Sc2c1csc2Cl | 287 to 288 °C |
| C=CCC1COC(CC)(CC(=O)O)c2[nH]c3c(CC)cccc3c21 (configuration not stated) | 96 to 97 °C |
| NS(=O)(=O)c1ccc(C(=O)c2ccc(O)cc2)s1 | 183 to 190 °C |
| O=C1NC(N2CCCCCC2)=N/C1=C\c1c[nH]c2ncc(-c3ccccc3)cc12 | 302 °C |
| COc1ccc2sc(-c3ccc(OCCN4CCCC4)cc3)cc2c1 | 123 to 126 °C |

| SMILES | melting point |
| --- | --- |
| NC(=O)Cn1c(-c2ccc(Br)cc2)nc2cccnc21 | > 250 °C |
| Cc1cc2ccc3c(c2o1)OC(CN1CC=C(c2c[nH]c4ccccc24)CC1)CO3 (configuration not stated) | 198 to 200 °C |
| CCCN1CC(Nc2ccc3c(c2)CCO3)CC2c3cccc4c3c(cn4C)CC21 (configuration not stated) | 137 to 138 °C |
| O=C1NC(N2CCCCCC2)=N/C1=C\c1c[nH]c2ncc(F)cc12 | 299 °C |
| CCCCCCCCc1c(C)nc2cc(C)nn2c1N | 169 °C |
| COc1ccc(-c2nc(NC(=N)N3CCN(C)CC3)sc2-c2ccc(OC)cc2)cc1 | 161 to 162 °C |
| CC(=O)SC(CC(=O)c1ccccc1)C(=O)O (configuration not stated) | 90 °C |
| Cc1cc(Oc2ncc(C(F)(F)F)cc2Cl)nn1C(=O)Nc1cccc(Cl)c1 | 129 to 130 °C |
| CC(O)=C(C#N)C(=O)c1ccc(F)cc1 | 65 to 67 °C |
| CCCCC[C@H]1CC[C@H](CC(=O)c2ccc(-c3ccc(CC)cc3F)cc2)CC1 | 72 to 73 °C |
| CC(=O)Nc1ccc(S(=O)(=O)CC(=O)C23CC4CC(CC(C4)C2)C3)cc1 | 151 to 152 °C |
| COc1cnc(CS(C)(=O)=O)nc1O | 230 °C |
| CS(=O)c1ccc(-n2cnc3ccc(-c4nnc(SCc5cccc(C(F)(F)F)c5)o4)cc32)cc1 (configuration not stated) | 88 to 91 °C |
| O=C(N[C@@H]1CCc2ccccc21)c1nn(-c2ccc(F)cc2F)c2c1C1CCC2C1 (some centres not stated) | 158 to 161 °C |
| Nc1cc(F)ccc1C=C(Br)Br | 72 to 73 °C |
| Nc1ccn(C2OC(CO)C(O)C2O)c(=O)c1F (configuration not stated) | 234 to 236 °C |
| CCOC(=O)C1=Cc2cc(-c3ccc(C)cc3)ccc2SC1 | 87 °C |
| CNC(=C[N+](=O)[O-])NCCCCCCCCCCCCNC(=C[N+](=O)[O-])NCCSCc1ccc(CN(C)C)o1 | 78 to 80 °C |
| CCOC(=O)c1nc(-c2ccc(Cl)cc2Cl)n(-c2ccc(Cl)cc2)c1CF | 124 to 125 °C |
| CCNC(=S)Nc1cccc(C(=O)OCC)c1NCc1ccc(-c2ccccc2C#N)cc1 | 108 to 110 °C |
| CC(=O)Nc1ccc(S(=O)(=O)NC(C)(C)C)cc1 | 200 to 201 °C |
| O=C(COCc1ccccc1)NC(C(=O)O)c1ccccc1 (configuration not stated) | 127 to 130 °C |

| SMILES | melting point |
| --- | --- |
| COC(=O)N1CCC(c2n[nH]c3cc(Cl)ccc23)CC1 | 132 to 134 °C |
| CC(C)N(Cc1coc(-c2ncn3c2CN(C)C(=O)c2c(Cl)cccc2-3)n1)C(C)C | 164 to 166 °C |
| COc1ccc2c(c1)CN(C)C(=O)C2c1cc(Cl)cc(Cl)c1 (configuration not stated) | 163 to 165 °C |
| CC(C)(CO)NS(=O)(=O)c1cnc(NC(=O)c2cnn3c(C(F)F)cc(-c4ccc(C(F)(F)F)cc4)nc23)s1 | 280 °C |
| Nc1nc(N2CCC2)c2ncn(C3CC(O)C(CO)C3)c2n1 (single isomer, unassigned; (+)) | 194 to 195 °C |
| CC(C)(C)c1cc(C2=C(c3cc(C(C)(C)C)c(O)c(C(C)(C)C)c3)C2=C(C#N)C#N)cc(C(C)(C)C)c1O | 280 to 281 °C |
| CCn1nc2c(N)nc3c(c2c1CC(C)C)CCCC3 | 206 to 207 °C |
| CC(=Cc1ccc(C(F)(F)F)cc1)C1OCC(S(=O)Cc2ccc(Cl)cc2)CO1 (configuration not stated) | 192 to 194 °C |
| CC1CCc2c(Cl)ccc3c(=O)c(C(=O)O)cn1c23 (configuration not stated) | 290 to 291 °C |
| CC1(C)COP(=O)(Cc2ccc(N)cc2)OC1 | 152 to 153 °C |
| O=C1CCCc2c(cccc2OCC2CO2)N1 (configuration not stated) | 121 to 123 °C |
| COC(=O)C(=O)c1cc(OC)c(O)c([N+](=O)[O-])c1 | 155 to 157 °C |
| Cn1c(=O)sc2nc(-c3ccccc3)cn2c1=O | 228 to 229 °C |
| CCCCOc1nc(N)c2[nH]c(=O)n(CCN(C)Cc3cccc(CC(=O)O)c3)c2n1 | 164 to 166 °C |
| O=S(=O)(c1ccccc1)N1C[C@@H](c2c[nH]c3ccccc23)[C@H](c2cn3c4c(cccc24)CCC3)C1 | 115 to 125 °C |
| COc1nc(C)c(C(C)O)cc1NC(=O)N1CCN(c2cccc(C)c2C)CC1 (configuration not stated) | 100 to 102 °C |
| CNC(=O)/C(=N/OC)c1ccccc1COc1ccc(-c2ccccc2)cc1 | 136 to 137 °C |
| Cn1ccnc1Sc1ccc(Nc2c(C#N)cnc3cc(N4CCC(N5CCCC5)CC4)c([N+](=O)[O-])cc23)cc1Cl | 220 to 230 °C |
| CN(C)c1ccc(NC(=O)N(CCC2=CCCCC2)C[C@H]2CC[C@H](CN(CCC3=CCCCC3)C(=O)Nc3ccc(N(C)C)cc3)CC2)cc1 | 152 to 155 °C |
| CC(C)(C)c1cc(CCC(=O)Oc2ccccc2)ccc1O | 106 to 109 °C |

The next lines start with the values.

| melting point | SMILES |
| --- | --- |
| 121 to 123 °C | CC=NN(C(=O)c1ccc(C)cc1)c1ccc2c(c1)OCCO2 |
| 98 to 99 °C | CCO/C=C/C(=O)Nc1cccc(Cl)c1OC |
| 76 to 78 °C | CCOC(=O)c1c(C(C)C)c2n(c1-c1ccc(F)cc1)CCCC2 |
| 82 to 85 °C | O=[N+]([O-])c1cccc(O)c1O |
| 52 to 56 °C | CC(=O)CCC(=O)N1CCN(c2c(F)cc(N3CC(CNC(C)=O)OC3=O)cc2F)CC1 (configuration not stated) |
| 139 to 140 °C | COC(=O)CCC(=O)c1ccc2c(c1)CC(CNC(C)=O)C2 (configuration not stated) |
| 103 °C | CC(C)(C)OC(=O)COc1cc(NC(=O)OC(C)(C)C)c([N+](=O)[O-])cc1I |
| 205 to 207 °C | COc1cc2c(cc1OC)-c1c(C#N)sc(=O)n1CC2 |
| 169 to 173 °C | O=C(Nc1ccc(OC(F)(F)F)cc1)NC1CCNCC1 |
| 214 to 216 °C | COc1cc(OC(=O)c2cc(O)c(O)c(O)c2)ccc1OC(=O)c1cc(O)c(O)c(O)c1 |
| 162 to 164 °C | COc1ccc2c(c1)CCC(C(=O)Cl)C2 (configuration not stated) |
| 254 to 264 °C | O=C1C=C(c2c[nH]c3ccc(Cl)cc23)C(=O)N1 |
| 71 to 73 °C | c1ccc2c(CC3CCCCC3)c[nH]c2c1 |
| 51 °C | CCOC(=O)c1ccc(OCCCCCCc2cc(C)no2)cc1 |
| 127 °C | CC(C)(Cc1ccc(Cl)cc1)C(=O)Cn1cncn1 |
| 208 to 211 °C | O=C(Cn1nc(-c2ccccc2O)nc1-c1ccccc1O)NCCO |
| 170 °C | CCON=C(CC)C1=C(O)CC(c2c(C)c([N+](=O)[O-])c(C)c([N+](=O)[O-])c2C)CC1=O (configuration not stated) |
| 110 to 113 °C | CC(=O)C(=C1NCCCS1)[N+](=O)[O-] |
| 160 to 162 °C | CC(COc1ccc2c(c1)CC/C(=C\c1cccs1)C2=O)n1ccnc1 (configuration not stated) |

| melting point | SMILES |
| --- | --- |
| 112 to 114 °C | CCc1ncnc(O)c1F |
| 299 °C | CC1SC(=O)NN=C1c1ccc2c(c1)C(=NNc1ccc(C(C)(C)C)cc1)C(=O)N2 (configuration not stated) |
| 70 °C | CCOC(=O)COc1c2c3c(ccnc3c3ccccc13)CCC2 |
| 240 to 242 °C | Cc1cc(F)ccc1Oc1ccc(C2=CC=CN3CCS(=O)(=O)N=C23)cc1 |
| 134 to 135 °C | Nc1cccc2c1OCCO2 |
| 186 to 188 °C | NS(=O)(=O)Cc1ccc2[nH]cc(CCN3C(=O)c4ccccc4C3=O)c2c1 |
| 158 to 159 °C | O=C(NCCO)c1cccc(-c2ccnc3cc(Cc4cccc(C(F)(F)F)c4)oc23)c1 |
| 255 to 258 °C | Cc1cc(O)c2cccc(OCc3c(Cl)ccc([N+](=O)[O-])c3Cl)c2n1 |
| 314 to 316 °C | Cc1nc2cc(-c3ccc(C=C4SC(=O)NC4=O)cn3)cc(C3CCCCC3)c2o1 |
| 191 to 194 °C | O=C1Cc2cccc(S(=O)c3ccc(Cl)cc3)c2N1 (configuration not stated) |
| 145 to 150 °C | CCCCCCC(C(=O)N1CCC[C@H]1C(=O)O)n1cnc2cc(-c3ccccc3-c3nn[nH]n3)ccc21 (some centres not stated) |
| 204 to 210 °C | O=C(O)c1ccc2c(c1)Sc1ccc(F)cc1C(O)C2 (configuration not stated) |
| 65 to 70 °C | COC(=O)[C@H](CC(=O)c1ccc2oc3ccccc3c2c1)NC(=O)c1ccccc1 |
| 73 to 74.5 °C | CC1(C)COC(c2cc(I)cc(C(F)(F)F)c2)=N1 |
| 53 to 54 °C | CCCCCCCCCCCCNc1cc(C)c(C)cc1N |
| 97 to 100 °C | CC=CCOc1ccc(C(=O)C=Cc2cccc(OC)c2)c(O)c1 |
| 90 to 92 °C | Cc1cc(Oc2ncc(C(F)(F)F)cc2Cl)nn1C(=O)OC(C)(C)C |
| 76 to 78 °C | CCCOc1ccc(F)cc1C(=O)O |
| 134 to 137 °C | O=C(NCCO)c1cccc(-c2cccc3cc(Cc4ccc(=O)[nH]c4)sc23)c1 |
